Data published in patent publication US10899759B2, “Positive allosteric modulators of the muscarinic acetylcholine receptor M1” (Vanderbilt University, priority 2016, dated 2021).

Target: T1, human mAChR M1 (Homo sapiens, UniProt P11229)
T1 construct: host or cells: CHO-K1
T1 sequence (P11229 1-460): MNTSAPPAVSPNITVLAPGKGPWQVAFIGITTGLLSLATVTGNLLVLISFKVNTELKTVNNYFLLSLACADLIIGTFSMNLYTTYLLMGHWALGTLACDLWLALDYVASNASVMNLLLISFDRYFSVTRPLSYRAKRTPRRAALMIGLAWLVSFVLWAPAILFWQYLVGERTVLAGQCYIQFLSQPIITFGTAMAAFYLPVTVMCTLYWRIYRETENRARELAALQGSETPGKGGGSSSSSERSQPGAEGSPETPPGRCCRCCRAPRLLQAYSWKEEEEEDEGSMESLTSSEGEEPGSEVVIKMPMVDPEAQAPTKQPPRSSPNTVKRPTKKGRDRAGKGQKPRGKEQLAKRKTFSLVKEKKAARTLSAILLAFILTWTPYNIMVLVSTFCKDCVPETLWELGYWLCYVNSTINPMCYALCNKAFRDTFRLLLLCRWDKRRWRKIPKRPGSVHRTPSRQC
Assay: mAChR M1 cell-based functional assay (calcium mobilization, Fluo-4, FDSS)
Conditions: CHO-K1 cells stably expressing hM1; for Emax: EC20 acetylcholine response, read-out: Human M1 Emax; for EC50: positive allosteric modulator activity as increase in the EC20 acetylcholine response
Protocol: Chinese hamster ovary (CHO-K1) cells stably expressing rat (r)M1 were purchased from the American Type Culture Collection and cultured according to their indicated protocol. […] To make stable rM2, hM2, rM3, hM4, and rM4 cell lines for use in calcium mobilization assays, these cells also were stably transfected with a chimeric G-protein (Gqi5) (provided by B. R. Conklin, University of California, San Francisco) using Lipofectamine 2000. rM1, hM1, rM3, hM3, rM5, and hM5 cells were grown in Ham's F-12 medium containing 10% heat-inactivated fetal bovine serum (FBS), 20 mM HEPES, and 50 μg/mL G418 sulfate. rM2-Gqi5, hM2-Gqi5, and hM4-Gqi5 cells were grown in the same medium also containing 500 μg/mL Hygromycin B. Stable rM4-Gqi5 cells were grown in DMEM containing 10% heat-inactivated FBS, 20 mM HEPES, 400 μg/mL G418 sulfate, and 500 μg/mL Hygromycin B.
For high throughput measurement of agonist-evoked increases in intracellular calcium, CHO-K1 cells stably expressing muscarinic receptors were plated in growth medium lacking G418 and hygromycin at 15,000 cells/20 μL/well in Greiner 384-well black-walled, tissue culture (TC)-treated, clear-bottom plates (VWR). Cells were incubated overnight at 37° C. and 5% CO2. […] Compound master plates were formatted in an 11 point CRC format (1:3 dilutions) in 100% DMSO with a starting concentration of 10 mM using the BRAVO liquid handler (Agilent). Test compound CRCs were then transferred to daughter plates (240 nL) using the Echo acoustic plate reformatter (Labcyte, Sunnyvale, Calif.) and then diluted into assay buffer (40 μL) to a 2× stock using a Thermo Fisher Combi (Thermo Fisher Scientific, Waltham, Mass.).
Calcium flux was measured using the Functional Drug Screening System (FDSS) 6000 (Hamamatsu Corporation, Tokyo, Japan) as an increase in the fluorescent static ratio. Compounds were applied to cells (20 μL, 2×) using the automated system of the FDSS 6000 at 4 s into the 300 s protocol and the data were collected at 1 Hz. […] Agonist activity was analyzed as a concentration-dependent increase in calcium mobilization upon compound addition. Positive allosteric modulator activity was analyzed as a concentration-dependent increase in the EC20 acetylcholine response. Antagonist activity was analyzed as a concentration-dependent decrease in the EC80 acetylcholine response. Concentration-response curves were generated using a four-parameter logistical equation in XLfit curve fitting software (IDBS, Bridgewater, N.J.) for Excel (Microsoft, Redmond, Wash.) or Prism (GraphPad Software, Inc., San Diego, Calif.).
The compound numbers correspond to the compound numbers used in Table 1.

| SMILES | Emax | EC50 |
| --- | --- | --- |
| Cn1ccc2c(Cc3ccc(-c4cscn4)cc3)cc(C(=O)NC3CC4(COC4)C3)nc21 [Compound 23, 1-methyl-N-(2-oxaspiro[3.3]heptan-6-yl)-4-[(4-thiazol-4-ylphenyl)methyl]pyrrolo[2,3-b]pyridine-6-carboxamide] | 75.4% | 140 nM |
| CC1CC(NC(=O)c2cc(Cc3ccc(-c4cscn4)cc3)c3ccn(C)c3n2)CC(C)O1 (stereo not shown) [Compound 24, N-(2,6-dimethyltetrahydropyran-4-yl)-1-methyl-4-[(4-thiazol-4-ylphenyl)methyl]pyrrolo[2,3-b]pyridine-6-carboxamide] | 65.3% | 1110 nM |
| Cn1ccc2c(Cc3ccc(-c4cscn4)cc3)cc(C(=O)NC3CCOC(C)(C)C3)nc21 (stereo not shown) [Compound 25, N-(2,2-dimethyltetrahydropyran-4-yl)-1-methyl-4-[(4-thiazol-4-ylphenyl)methyl]pyrrolo[2,3-b]pyridine-6-carboxamide] | 76.7% | 670 nM |
| Cn1ccc2c(Cc3ccc(-c4cscn4)cc3)cc(C(=O)NCC3CCOCC3)nc21 [Compound 26, 1-methyl-N-(tetrahydropyran-4-ylmethyl)-4-[(4-thiazol-4-ylphenyl)methyl]pyrrolo[2,3-b]pyridine-6-carboxamide] | 52.6% | 410 nM |
| Cn1ncc2c(Cc3ccc(-c4cscn4)cc3)cc(C(=O)N[C@H]3CCOC[C@@H]3O)nc21 [Compound 27, N-[(3R,4S)-3-hydroxytetrahydropyran-4-yl]-1-methyl-4-[(4-thiazol-4-ylphenyl)methyl]pyrazolo[3,4-b]pyridine-6-carboxamide] | 75.1% | 70 nM |
| Cn1ncc2c(Cc3ccc(-c4cscn4)cc3)cc(C(=O)N[C@H]3CCCC[C@@H]3O)nc21 [Compound 28, N-[(1S,2S)-2-hydroxycyclohexyl]-1-methyl-4-[(4-thiazol-4-ylphenyl)methyl]pyrazolo[3,4-b]pyridine-6-carboxamide] | 76.4% | 130 nM |
| Cn1ncc2c(Cc3ccc(-c4cscn4)cc3)cc(C(=O)NCC3CCOCC3)nc21 [Compound 29, 1-methyl-N-(tetrahydropyran-4-ylmethyl)-4-[(4-thiazol-4-ylphenyl)methyl]pyrazolo[3,4-b]pyridine-6-carboxamide] | 48.1% | 1610 nM |
| Cn1ncc2c(Cc3ccc(-c4cscn4)cc3)cc(C(=O)NC3CC4(COC4)C3)nc21 [Compound 30, 1-methyl-N-(2-oxaspiro[3.3]heptan-6-yl)-4-[(4-thiazol-4-ylphenyl)methyl]pyrazolo[3,4-b]pyridine-6-carboxamide] | 77.8% | 660 nM |
| Cn1ncc2c(Cc3ccc(-c4cscn4)cc3)cc(C(=O)N[C@H]3CC[C@@H]3O)nc21 [Compound 31, N-[(1S,2S)-2-hydroxycyclobutyl]-1-methyl-4-[(4-thiazol-4-ylphenyl)methyl]pyrazolo[3,4-b]pyridine-6-carboxamide] | 79.7% | 3830 nM |
| Cn1ccc2c(Cc3ccc(-c4cscn4)cc3)cc(C(=O)N[C@@H]3CCCOC3)nc21 [Compound 32, 1-methyl-N-[(3R)-tetrahydropyran-3-yl]-4-[(4-thiazol-4-ylphenyl)methyl]pyrrolo[2,3-b]pyridine-6-carboxamide] | 39.7% | 380 nM |
| Cn1ccc2c(Cc3ccc(-c4cscn4)cc3)cc(C(=O)N[C@H]3CCOC3)nc21 [Compound 33, 1-methyl-N-[(3S)-tetrahydrofuran-3-yl]-4-[(4-thiazol-4-ylphenyl)methyl]pyrrolo[2,3-b]pyridine-6-carboxamide] | 50.6% | 2910 nM |
| Cn1ccc2c(Cc3ccc(-c4cscn4)cc3)cc(C(=O)N[C@@H]3CCOC3)nc21 [Compound 34, 1-methyl-N-[(3R)-tetrahydrofuran-3-yl]-4-[(4-thiazol-4-ylphenyl)methyl]pyrrolo[2,3-b]pyridine-6-carboxamide] | 54.8% | 2190 nM |
| Cn1ccc2c(Cc3ccc(-c4cscn4)cc3)cc(C(=O)NC3COC3)nc21 [Compound 35, 1-methyl-N-(oxetan-3-yl)-4-[(4-thiazol-4-ylphenyl)methyl]pyrrolo[2,3-b]pyridine-6-carboxamide] | 40.2% | 1230 nM |
| Cn1ccc2c(Cc3ccc(-c4cscn4)cc3)cc(C(=O)NC3CN(C4COC4)C3)nc21 [Compound 36, 1-methyl-N-[1-(oxetan-3-yl)azetidin-3-yl]-4-[(4-thiazol-4-ylphenyl)methyl]pyrrolo[2,3-b]pyridine-6-carboxamide] | 66% | 3120 nM |
| Cn1ccc(-c2ccc(Cc3cc(C(=O)N[C@H]4CCOC[C@@H]4O)nc4c3ccn4C)cc2)n1 [Compound 37, N-[(3R,4S)-3-hydroxytetrahydropyran-4-yl]-1-methyl-4-[[4-(1-methylpyrazol-3-yl)phenyl]methyl]pyrrolo[2,3-b]pyridine-6-carboxamide] | 76.7% | 60 nM |
| Cn1ccc(-c2ccc(Cc3cc(C(=O)N[C@H]4CCCC[C@@H]4O)nc4c3ccn4C)cc2)n1 [Compound 38, N-[(1S,2S)-2-hydroxycyclohexyl]-1-methyl-4-[[4-(1-methylpyrazol-3-yl)phenyl]methyl]pyrrolo[2,3-b]pyridine-6-carboxamide] | 78.6% | 130 nM |
| Cn1ccc(-c2ccc(Cc3cc(C(=O)NC4CCOCC4)nc4c3ccn4C)cc2)n1 [Compound 39, 1-methy1-4-[[4-(1-methylpyrazol-3-yl)phenyl]methyl]-N-tetrahydropyran-4-yl-pyrrolo[2,3-b]pyridine-6-carboxamide] | 81.2% | 750 nM |
| Cn1ccc(-c2ccc(Cc3cc(C(=O)NC4CC5(COC5)C4)nc4c3ccn4C)cc2)n1 [Compound 40, 1-methyl-4-[[4-(1-methylpyrazol-3-yl)phenyl]methyl]-N-(2-oxaspiro[3.3]heptan-6-yl)pyrrolo[2,3-b]pyridine-6-carboxamide] | 74% | 750 nM |
| Cn1ccc(-c2ccc(Cc3cc(C(=O)N[C@@H]4CC[C@H]4O)nc4c3ccn4C)cc2)n1 [Compound 41, N-[(1R,2R)-2-hydroxycyclobutyl]-1-methy1-4-[[4-(1-methylpyrazol-3-yl)phenyl]methyl]pyrrolo[2,3-b]pyridine-6-carboxamide] | 78% | 1050 nM |
| Cn1ccc(-c2ccc(Cc3cc(C(=O)N[C@@H]4CCC[C@H]4O)nc4c3ccn4C)cc2)n1 [Compound 42, N-[(1R,2R)-2-hydroxycyclopentyl]-1-methy1-4-[[4-(1-methylpyrazol-3-yl)phenyl]methyl]pyrrolo[2,3-b]pyridine-6-carboxamide] | 74.3% | 370 nM |
| Cn1ccc(-c2ccc(Cc3cc(C(=O)NCC4CCOCC4)nc4c3ccn4C)cc2)n1 [Compound 43, 1-methyl-4-[[4-(1-methylpyrazol-3-yl)phenyl]methyl]-N-(tetrahydropyran-4-ylmethyl)pyrrolo[2,3-b]pyridine-6-carboxamide] | 49.6% | 610 nM |
| Cn1ccc(-c2ccc(Cc3cc(C(=O)NC4COC4)nc4c3ccn4C)cc2)n1 [Compound 44, 1-methy1-4-[[4-(1-methylpyrazol-3-yl)phenyl]methyl]-N-(oxetan-3-yl)pyrrolo[2,3-b]pyridine-6-carboxamide] | 56.1% | 6280 nM |
| Cn1cc(-c2ccc(Cc3cc(C(=O)N[C@H]4CCOC[C@@H]4O)nc4c3ccn4C)cn2)cn1 [Compound 45, N-[(3R,4S)-3-hydroxytetrahydropyran-4-yl]-1-methyl-4-[[6-(1-methylpyrazol-4-yl)-3-pyridyl]methyl]pyrrolo[2,3-b]pyridine-6-carboxamide] | 74.3% | 10 nM |
